The supplement of paper PMC10307832

Key:
Experiment in all cases: relative viability (nuclei count vs DMSO), 5 days (fraction); higher = more cells survive
NCI-H358 = system: NCI-H358
How it was run: (§1)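 Lung cancer cell lines were pin-tool dosed in 1536-well plates on the day after seeding, with either a lone drug or a fixed anchor-drug dose plus five library-drug doses (not always all listed) in √10 steps. Nuclei were counted on 4× images after 5 days. Relative viability is the ratio of treated-well to vehicle-well nuclei counts, with each value a median of duplicate plates.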

NCI-H1915 = system: NCI-H1915
How it was run: as §1

PC-3 [JPC-3] = system: PC-3 [JPC-3]
How it was run: as §1

LOU-NH91 = system: LOU-NH91
How it was run: as §1

NCI-H2126 = system: NCI-H2126
How it was run: as §1

NCI-H460 = system: NCI-H460
How it was run: as §1

NCI-H522 = system: NCI-H522
How it was run: as §1

NCI-H2347 = system: NCI-H2347
How it was run: as §1

NCI-H647 = system: NCI-H647
How it was run: as §1

HOP-62 = system: HOP-62
How it was run: as §1

RERF-LC-KJ = system: RERF-LC-KJ
How it was run: as §1

NCI-H2342 = system: NCI-H2342
How it was run: as §1

NCI-H1755 = system: NCI-H1755
How it was run: as §1

HCC-15 = system: HCC-15
How it was run: as §1

A-427 = system: A-427
How it was run: as §1

NCI-H1734 = system: NCI-H1734
How it was run: as §1

LXF-289 = system: LXF-289
How it was run: as §1

LC-2-ad = system: LC-2-ad
How it was run: as §1

SW 1573 = system: SW 1573
How it was run: as §1

SK-LU-1 = system: SK-LU-1
How it was run: as §1

NCI-H1792 = system: NCI-H1792
How it was run: as §1

NCI-H1975 = system: NCI-H1975
How it was run: as §1

HCC-78 = system: HCC-78
How it was run: as §1

Compound `COc1cc(N2CCC(C(N)=O)CC2)ccc1Nc1nc(N)c(Cl)c(Nc2ccccc2S(=O)(=O)C(C)C)n1` [HG-5-88-01] + Nc1ncn([C@H]2C[C@H](O)[C@@H](CO)O2)c(=O)n1 [Decitabine] (partner 2 µM) has a relative viability (NCI-H358; first compound 0.04 µM) of 0.208, a relative viability (NCI-H358; first compound 0.1265 µM) of 0.229 and a relative viability (NCI-H358; first compound 0.4 µM) of 0.285. The relative viability (NCI-H358; first compound 1.265 µM) was 0.192, the relative viability (NCI-H358; first compound 4 µM) was 0.125 and the relative viability (NCI-H1915; first compound 0.04 µM) was 0.254. It also gave a relative viability (NCI-H1915; first compound 0.1265 µM) of 0.279, a relative viability (NCI-H1915; first compound 0.4 µM) of 0.275 and a relative viability (NCI-H1915; first compound 1.265 µM) of 0.248. For the same compound, the relative viability (NCI-H1915; first compound 4 µM) was 0.254, the relative viability (PC-3 [JPC-3]; first compound 0.04 µM) was 0.762 and the relative viability (PC-3 [JPC-3]; first compound 0.1265 µM) was 0.826. The relative viability (PC-3 [JPC-3]; first compound 0.4 µM) was 0.872, the relative viability (PC-3 [JPC-3]; first compound 1.265 µM) was 0.546 and the relative viability (PC-3 [JPC-3]; first compound 4 µM) was 0.423. The relative viability (LOU-NH91; first compound 0.04 µM) was 0.796, the relative viability (LOU-NH91; first compound 0.1265 µM) was 0.844 and the relative viability (LOU-NH91; first compound 0.4 µM) was 0.725. The relative viability (LOU-NH91; first compound 1.265 µM) was 0.587, the relative viability (LOU-NH91; first compound 4 µM) was 0.6 and the relative viability (NCI-H2126; first compound 0.04 µM) was 0.603. For the same compound, the relative viability (NCI-H2126; first compound 0.1265 µM) was 0.586, the relative viability (NCI-H2126; first compound 0.4 µM) was 0.568 and the relative viability (NCI-H2126; first compound 1.265 µM) was 0.6. It also gave a relative viability (NCI-H2126; first compound 4 µM) of 0.556, a relative viability (NCI-H460; first compound 0.04 µM) of 0.478 and a relative viability (NCI-H460; first compound 0.1265 µM) of 0.493. It also gave a relative viability (NCI-H460; first compound 0.4 µM) of 0.494, a relative viability (NCI-H460; first compound 1.265 µM) of 0.578 and a relative viability (NCI-H460; first compound 4 µM) of 0.419. It also gave a relative viability (NCI-H522; first compound 0.04 µM) of 0.702, a relative viability (NCI-H522; first compound 0.1265 µM) of 0.773 and a relative viability (NCI-H522; first compound 0.4 µM) of 0.69. For the same compound, the relative viability (NCI-H522; first compound 1.265 µM) was 0.687, the relative viability (NCI-H522; first compound 4 µM) was 0.649 and the relative viability (NCI-H2347; first compound 0.04 µM) was 0.632. It also gave a relative viability (NCI-H2347; first compound 0.1265 µM) of 0.637, a relative viability (NCI-H2347; first compound 0.4 µM) of 0.729 and a relative viability (NCI-H2347; first compound 1.265 µM) of 0.672. For the same compound, the relative viability (NCI-H2347; first compound 4 µM) was 0.645, the relative viability (NCI-H647; first compound 0.04 µM) was 0.375 and the relative viability (NCI-H647; first compound 0.1265 µM) was 0.494. The relative viability (NCI-H647; first compound 1.265 µM) was 0.529, the relative viability (NCI-H647; first compound 4 µM) was 0.679 and the relative viability (HOP-62; first compound 0.04 µM) was 0.209. It also gave a relative viability (HOP-62; first compound 0.1265 µM) of 0.226, a relative viability (HOP-62; first compound 0.4 µM) of 0.232 and a relative viability (HOP-62; first compound 1.265 µM) of 0.252. For the same compound, the relative viability (HOP-62; first compound 4 µM) was 0.28, the relative viability (RERF-LC-KJ; first compound 0.04 µM) was 0.736 and the relative viability (RERF-LC-KJ; first compound 0.1265 µM) was 0.737. It also gave a relative viability (RERF-LC-KJ; first compound 0.4 µM) of 0.7, a relative viability (RERF-LC-KJ; first compound 1.265 µM) of 0.781 and a relative viability (RERF-LC-KJ; first compound 4 µM) of 0.528. For the same compound, the relative viability (NCI-H2342; first compound 0.04 µM) was 0.751, the relative viability (NCI-H2342; first compound 0.1265 µM) was 0.808 and the relative viability (NCI-H2342; first compound 0.4 µM) was 0.808. For the same compound, the relative viability (NCI-H2342; first compound 4 µM) was 0.801, the relative viability (NCI-H1755; first compound 0.04 µM) was 0.739 and the relative viability (NCI-H1755; first compound 0.1265 µM) was 0.732. For the same compound, the relative viability (NCI-H1755; first compound 0.4 µM) was 0.829, the relative viability (NCI-H1755; first compound 1.265 µM) was 0.688 and the relative viability (NCI-H1755; first compound 4 µM) was 0.836. For the same compound, the relative viability (HCC-15; first compound 0.04 µM) was 0.682, the relative viability (HCC-15; first compound 0.1265 µM) was 0.709 and the relative viability (HCC-15; first compound 0.4 µM) was 0.487. It also gave a relative viability (HCC-15; first compound 1.265 µM) of 0.572, a relative viability (HCC-15; first compound 4 µM) of 0.477 and a relative viability (A-427; first compound 0.04 µM) of 0.549. It also gave a relative viability (A-427; first compound 0.1265 µM) of 0.598, a relative viability (A-427; first compound 0.4 µM) of 0.603 and a relative viability (A-427; first compound 1.265 µM) of 0.585. It also gave a relative viability (A-427; first compound 4 µM) of 0.547, a relative viability (NCI-H1734; first compound 0.04 µM) of 0.526 and a relative viability (NCI-H1734; first compound 0.1265 µM) of 0.564. The relative viability (NCI-H1734; first compound 0.4 µM) was 0.511, the relative viability (NCI-H1734; first compound 1.265 µM) was 0.462 and the relative viability (NCI-H1734; first compound 4 µM) was 0.532. The relative viability (LXF-289; first compound 0.04 µM) was 0.324, the relative viability (LXF-289; first compound 0.1265 µM) was 0.402 and the relative viability (LXF-289; first compound 0.4 µM) was 0.464. It also gave a relative viability (LXF-289; first compound 1.265 µM) of 0.423, a relative viability (LXF-289; first compound 4 µM) of 0.427 and a relative viability (LC-2-ad; first compound 0.04 µM) of 0.782. The relative viability (LC-2-ad; first compound 0.1265 µM) was 0.719, the relative viability (LC-2-ad; first compound 0.4 µM) was 0.771 and the relative viability (LC-2-ad; first compound 1.265 µM) was 0.814. For the same compound, the relative viability (LC-2-ad; first compound 4 µM) was 0.855, the relative viability (SW 1573; first compound 0.04 µM) was 0.454 and the relative viability (SW 1573; first compound 0.1265 µM) was 0.593. It also gave a relative viability (SW 1573; first compound 0.4 µM) of 0.423, a relative viability (SW 1573; first compound 1.265 µM) of 0.428 and a relative viability (SW 1573; first compound 4 µM) of 0.458. It also gave a relative viability (SK-LU-1; first compound 0.04 µM) of 0.525, a relative viability (SK-LU-1; first compound 0.1265 µM) of 0.595 and a relative viability (SK-LU-1; first compound 0.4 µM) of 0.598. For the same compound, the relative viability (SK-LU-1; first compound 1.265 µM) was 0.598, the relative viability (SK-LU-1; first compound 4 µM) was 0.344 and the relative viability (NCI-H1792; first compound 0.04 µM) was 0.628. It also gave a relative viability (NCI-H1792; first compound 0.1265 µM) of 0.452, a relative viability (NCI-H1792; first compound 0.4 µM) of 0.579 and a relative viability (NCI-H1792; first compound 1.265 µM) of 0.564. For the same compound, the relative viability (NCI-H1792; first compound 4 µM) was 0.545, the relative viability (NCI-H1975; first compound 0.04 µM) was 0.409 and the relative viability (NCI-H1975; first compound 0.1265 µM) was 0.474. It also gave a relative viability (NCI-H1975; first compound 0.4 µM) of 0.382, a relative viability (NCI-H1975; first compound 1.265 µM) of 0.403 and a relative viability (NCI-H1975; first compound 4 µM) of 0.273. It also gave a relative viability (HCC-78; first compound 0.04 µM) of 0.696, a relative viability (HCC-78; first compound 0.1265 µM) of 0.598 and a relative viability (HCC-78; first compound 0.4 µM) of 0.62. For the same compound, the relative viability (HCC-78; first compound 1.265 µM) was 0.411 and the relative viability (HCC-78; first compound 4 µM) was 0.432.
